Values quoted from earlier work in patent publication US12026655B2, “Systems and methods for post-harvest crop quality management” (priority 2017, dated 2024).
Read-outs that look alike come from different tables or passages of the source.

Columns and labels:
[1] = system: tobacco moth and susceptible cigarette beetle
[2] = system: resistant cigarette beetle
Rhyzopertha dominica = conditions: e(x, t)>1 means at least 99.9% of the insect population killed
[3] = tobacco temperature 16-20 °C (61-68 °F), 300 ppm phosphine at the bale/case centre

For `P` [phosphine], the “Minimum Exposure Time to achieve 100% control of all development stages” value [1, 3] is given as 6 days, the “Minimum Exposure Time to achieve 100% control of all development stages” value ([1]; tobacco temperature >20 °C (>68 °F), 200 ppm phosphine at the bale/case centre) is given as 4 days and the “Minimum Exposure Time to achieve 100% control of all development stages” value [2, 3] is given as 12 days. The “Minimum Exposure Time to achieve 100% control of all development stages” value ([2]; tobacco temperature 20-25 °C (68-77 °F), 300 ppm phosphine at the bale/case centre) was 12 days, the “Minimum Exposure Time to achieve 100% control of all development stages” value ([2]; tobacco temperature 20-25 °C (68-77 °F), 700 ppm phosphine at the bale/case centre) was 10 days and the “Minimum Exposure Time to achieve 100% control of all development stages” value ([2]; tobacco temperature >25 °C (>77 °F), 300 ppm phosphine at the bale/case centre) was 12 days. For the same molecule, the “Minimum Exposure Time to achieve 100% control of all development stages” value ([2]; tobacco temperature >25 °C (>77 °F), 600 ppm phosphine at the bale/case centre) was 6 days, the “empirical constant a1 of the extinction indicator function e(x, t)” value (Rhyzopertha dominica) was 4.04 and the “empirical constant a2 of the extinction indicator function e(x, t)” value (Rhyzopertha dominica) was 0.6105.
